Here are results for 2 compounds from publication PMC8781960, “Structural Basis of 2-Phenylamino-4-phenoxyquinoline Derivatives as Potent HIV-1 Non-Nucleoside Reverse Transcriptase Inhibitors” (Molecules, 2022).

Marks after values point to notes of the source that are not given here.

Data set [1] deals with A549 (lung carcinoma). Description: In vitro cytotoxicity (MTT). An outline of the steps:
(§1)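 Samples are added at various concentrations and incubated for 48 h. MTT (prepared as a 5 mg/mL stock in phosphate-buffered saline) is then used to assess viability. The formazan product is taken up in DMSO by sonication and read at 550/650 nm.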

Data set [2] concerns HL-60 (promyeloblast). Description: In vitro cytotoxicity (MTT). The note with it: Homo sapiens, HL-60, 48 h, read-out: IC50 HL-60. The procedure, abridged:
as §1

Data set [3] relates to HeLA (cervical carcinoma). Description: In vitro cytotoxicity (MTT). The note with it: Homo sapiens, HeLa, 48 h, read-out: IC50 HeLA. The procedure, abridged:
as §1

Data set [4] concerns HepG2 (hepatocarcinoma). Description: In vitro cytotoxicity (MTT). An outline of the steps: as §1
Data set [5] relates to HuCCA-1 (cholangiocarcinoma). Description: In vitro cytotoxicity (MTT). An outline of the steps: as §1
In data set [6] the test system is MDA-MB-231 (hormone-independent breast cancer). Description: In vitro cytotoxicity (MTT). The procedure, abridged: as §1
The subject of data set [7] is S102 (Thai liver cancer). Description: In vitro cytotoxicity (MTT). The procedure, abridged: as §1
Data set [8] has as its system T47-D (hormone-dependent breast cancer). Description: In vitro cytotoxicity (MTT). An outline of the steps: as §1
The test system of data set [9] is MOLT-3 (acute lymphoblastic leukemia). Description: In vitro cytotoxicity (XTT). The note with it: Homo sapiens, MOLT-3, 48 h, read-out: IC50 MOLT-3.
Data set [10] relates to MRC-5 (normal embryonic lung cell). Description: In vitro cytotoxicity (MTT), normal cell line. The procedure, abridged:
as §1

Data set [11] has as its system H69AR (lung cancer, multidrug resistant). Description: In vitro cytotoxicity (MTT). Format: cell-based, human. The note with it: 48 h.
Method: Background control wells contained the same volume as the complete culture medium. […] The reagent was dissolved in phosphate-buffered saline at 5 mg/mL and filtered to sterilize and remove the small amount of insoluble residue present in some batches of MTT. […] Subsequently, dimethyl sulfoxide (100 µL; Merck, Germany) was added to dissolve the resulting formazan by sonication. The plates were read on a microplate reader (Molecular Devices, CA, USA) using a test wavelength of 550 nm and a reference wavelength of 650 nm.
Data set [12] addresses T1, HIV-1 RT (Human immunodeficiency virus type 1 group M subtype B, UniProt P03366).
T1 construct: The reaction mixture consisted of template/primer complex, 2′-deoxy-nucleotide-5′-triphosphates (dNTPs), and RT enzyme in lysis buffer; purchased Roche Applied Science, Mannheim, Germany
Details: method as in PMID 31698495. Conditions: 1 µM; previously reported values for 5a–5d; cited from earlier work.

The mark [13] stands for this setting: at 50 µg/mL, inactive (IC50 ≥ 50 µg/mL).

By IC50 is commonly meant the concentration that gives 50% inhibition. By melting point is commonly meant the temperature, or range, at which the solid turns liquid. `Cc1cc(C=O)cc(C)c1Oc1cc(Nc2ccc(C#N)cc2)nc2ccccc12` [Compound 5b, 4-(2′,6′-Dimethyl-4′-formylphenoxy)-2-(4″-cyanophenyl)-aminoquinoline]: the melting point lay in the range of 291.3 to 292.2 °C. Moreover, the concentration for half-maximal inhibition (IC50) in [1] (Homo sapiens, A549, 48 h, read-out: IC50 A549) is 51.2 ± 3 µM. Moreover, the IC50 in data set [2] amounted to 4.5 ± 0.2 µM. The IC50 in data set [3] was 3.9 ± 0.6 µM. Besides, the IC50 in [4] (Homo sapiens, HepG2, 48 h, read-out: IC50 HepG2) was determined as 65.9 ± 6.1 µM. In addition, the IC50 in data set [5] (Homo sapiens, HuCC-A1, 48 h, read-out: IC50 HuCCA-1) came out at 29.4 ± 2 µM. In addition, the IC50 in [6] (Homo sapiens, MDA-MB-231, 48 h, read-out: IC50 MDA-MB-231) is 15.9 ± 0.4 µM. Also, in data set [7] (Homo sapiens, 48 h, read-out: IC50 S102), the IC50 turned out to be 74 ± 5.3 µM. Moreover, in data set [8] (Homo sapiens, T47D, 48 h, read-out: IC50 T47-D), the IC50 was 22.9 ± 0.9 µM. For the same compound, the IC50 in data set [9] is 11.8 ± 1.6 µM. Further, the IC50 in data set [10] (Homo sapiens, MRC5, 48 h, read-out: IC50 MRC-5) came out at 69.8 ± 4.3 µM. In [11] (Homo sapiens, H69AR, mean ± standard error), this compound displayed an IC50 of 27.6 ± 3.4 µM. The “Inhibitory activities (%) against HIV-1 RT” value in data set [12] is listed as 34.0 ± 2.5%.
As to `Cc1cc(C#N)cc(C)c1Oc1cc(Nc2ccc(C#N)cc2)nc2ccccc12` [Compound 5d, 4-(2′,6′-Dimethyl-4′-cyanophenoxy)-2-(4″-cyanophenyl)-aminoquinoline], the melting point was in the range of 256.5 to 257 °C. Further, the “%C percentage cytotoxicity A549” value in data set [1] (setting [13]) is recorded as “%C = 21.0 ^c”. Also, the IC50 in data set [2] was determined as 33.4 ± 1.7 µM. The IC50 in [3] is 83.4 ± 5.7 µM. In data set [4] (setting [13]), the “%C percentage cytotoxicity HepG2” value is “%C = 38.2 ^c”. In addition, the “%C percentage cytotoxicity HuCCA-1” value in [5] (setting [13]) is given as “%C = 3.0 ^c”. In addition, the “%C percentage cytotoxicity MDA-MB-231” value in data set [6] (setting [13]) is “%C = 14.9 ^c”. The “%C percentage cytotoxicity S102” value in [7] (setting [13]) is on record as “%C = 0.0 ^c”. The “%C percentage cytotoxicity T47-D” value in data set [8] (setting [13]) is listed as “%C = 24.0 ^c”. Besides, the IC50 in data set [9] was found to be 48.8 ± 41 µM. For the same compound, in [10] (normal cell line, at 50 µg/mL, inactive (IC50 ≥ 50 µg/mL)), the “%C percentage cytotoxicity MRC-5” value is “%C = 7.4 ^c”. The “%C percentage cytotoxicity H69AR” value in [11] (human, 50 µg/mL) is “%C = 0.0 ^c”. Further, in data set [12], the “Inhibitory activities (%) against HIV-1 RT” value is on record as 27.8 ± 3.1%.
